# According to patent US20150105252A1, “SUBSTITUTED PYRAZOLES AS HERBICIDES” (E I DU PONT DE NEMOURS AND COMPANY, priority 2013, published 2015):
# What was measured:
# [1] = tested on: barnyardgrass; assay: Test A preemergence; format: in vivo, Echinochloa crus-galli; conditions: preemergence
# How it was run: (§1)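 Seeds were sown in a loam soil–sand blend and given a directed soil spray preemergence; postemergence plants at 2–10 cm, one- to two-leaf stage, were sprayed with compound in non-phytotoxic solvent with surfactant. After about 10 days in a greenhouse, injury was visually rated against untreated controls (0 = no effect, 100 = complete control).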
# [2] = tested on: wheat; assay: Test A preemergence; format: in vivo, Triticum aestivum; conditions: preemergence
# How it was run: as §1
# [3] = tested on: velvetleaf; assay: Test A postemergence; format: in vivo, Abutilon theophrasti
# How it was run: as §1
# [4] = tested on: wheat; assay: Test A postemergence; format: in vivo, Triticum aestivum
# How it was run: as §1
# [5] = tested on: corn; assay: Test A postemergence; format: in vivo, Zea mays
# How it was run: as §1
# [6] = tested on: sedge, umbrella; assay: Test B flood; format: in vivo, Cyperus difformis; conditions: 250 g ai/ha, visual rating on 0 to 100 scale (0 no effect, 100 complete control), 13 to 15 days
# How it was run: (§2)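 Plants were grown to the 2-leaf stage, then pots were flooded to 3 cm above the soil and compounds were applied directly into the paddy water. Water depth was held for the whole test; after 13 to 15 days in a greenhouse, injury was visually rated against untreated controls (0 = no effect, 100 = complete control).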
# [7] = tested on: barnyardgrass; assay: Test B flood; format: in vivo, Echinochloa crus-galli; conditions: 250 g ai/ha, visual rating on 0 to 100 scale (0 no effect, 100 complete control), 13 to 15 days
# How it was run: as §2
# [8] = tested on: ryegrass, Italian; assay: Test C preemergence; format: in vivo, Lolium multiflorum; conditions: for Plant response rating (scale of 0 to 100), Ryegrass, Italian: Preemergence, 250 g ai/ha; for Ryegrass, Italian plant response rating / Plant response rating, Ryegrass, Italian: preemergence; for Plant response rating, Ryegrass, Italian: scale 0 to 100, 0 = no effect, 100 = complete control
# How it was run: (§3)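 Herbicidal effect is expressed as percent visual control (0–100) judged against untreated plants 13 to 15 days after treatment in the greenhouse. Preemergence pots contained seeds in a soil–sand blend; postemergence plants, 2–18 cm tall, grew in peat-based planting medium.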
# [9] = tested on: corn; assay: Test C preemergence; format: in vivo, Zea mays; conditions: for Plant response rating (scale of 0 to 100), Corn: Preemergence, 250 g ai/ha; for Corn plant response rating / Plant response rating, Corn: preemergence; for Plant response rating, Corn: scale 0 to 100, 0 = no effect, 100 = complete control
# How it was run: as §3
# [10] = tested on: foxtail, giant; assay: Test C preemergence; format: in vivo, Setaria faberii; conditions: for Plant response rating (scale of 0 to 100), Foxtail, Giant: Preemergence, 250 g ai/ha; for Foxtail, Giant plant response rating / Plant response rating, Foxtail, Giant: preemergence; for Plant response rating, Foxtail, Giant: scale 0 to 100, 0 = no effect, 100 = complete control
# How it was run: as §3
# [11] = tested on: morningglory; assay: Test C preemergence; format: in vivo, Ipomoea coccinea; conditions: for Plant response rating (scale of 0 to 100), Morningglory: Preemergence, 250 g ai/ha; for Morningglory plant response rating / Plant response rating, Morningglory: preemergence; for Plant response rating, Morningglory: scale 0 to 100, 0 = no effect, 100 = complete control
# How it was run: as §3
# [12] = tested on: pigweed; assay: Test C preemergence; format: in vivo, Amaranthus retroflexus; conditions: for Plant response rating (scale of 0 to 100), Pigweed: Preemergence, 250 g ai/ha; for Pigweed plant response rating / Plant response rating, Pigweed: preemergence; for Plant response rating, Pigweed: scale 0 to 100, 0 = no effect, 100 = complete control
# How it was run: as §3
# [13] = tested on: ragweed; assay: Test C preemergence; format: in vivo, Ambrosia elation; conditions: for Plant response rating (scale of 0 to 100), Ragweed: Preemergence, 250 g ai/ha; for Ragweed plant response rating / Plant response rating, Ragweed: preemergence; for Plant response rating, Ragweed: scale 0 to 100, 0 = no effect, 100 = complete control
# How it was run: as §3
# [14] = tested on: velvetleaf; assay: Test C preemergence; format: in vivo, Abutilon theophrasti; conditions: for Plant response rating (scale of 0 to 100), Velvetleaf: Preemergence, 250 g ai/ha; for Velvetleaf plant response rating / Plant response rating, Velvetleaf: preemergence; for Plant response rating, Velvetleaf: scale 0 to 100, 0 = no effect, 100 = complete control
# How it was run: as §3
# [15] = 125 g ai/ha, visual injury, 0 to 100 scale, approx. 10 days
# [16] = 500 g ai/ha, visual injury after approx. 10 days, 0 to 100 scale (0 no effect, 100 complete control)
# [17] = Postemergence, 500 g ai/ha, visual rating after approx. 10 days, 0 to 100 scale (0 no effect, 100 complete control)
# [18] = postemergence, 125 g ai/ha, about 10 days, visual rating on 0 to 100 scale (0 no effect, 100 complete control)
# [19] = 31 g ai/ha, visual rating, scale 0 to 100 (0 no effect, 100 complete control), 13 to 15 days
# [20] = 62 g ai/ha, scale 0 to 100 (0 no effect, 100 complete control), 13 to 15 days
# [21] = 125 g ai/ha, scale 0 to 100, 0 is no effect, 100 is complete control
# [22] = Postemergence, 500 g ai/ha, 0 to 100 scale (0 no effect, 100 complete control)
Structure (SMILES),"Barnyardgrass plant response rating [1, 15]","Barnyardgrass plant response rating [1, 16]","Wheat plant response rating [2, 15]","Wheat plant response rating [2, 16]","Velvetleaf plant response rating [3, 18]","Wheat plant response rating [4, 18]","Corn plant response rating [5, 18]","Plant response rating, Sedge, Umbrella [6]","Plant response rating, Barnyardgrass [7]","Plant response rating (scale of 0 to 100), Ryegrass, Italian [8]","Ryegrass, Italian plant response rating [8, 19]","Ryegrass, Italian plant response rating [8, 20]","Plant response rating (scale of 0 to 100), Corn [9]","Corn plant response rating [9, 19]","Plant response rating (scale of 0 to 100), Foxtail, Giant [10]","Foxtail, Giant plant response rating [10, 19]","Foxtail, Giant plant response rating [10, 20]","Plant response rating (scale of 0 to 100), Morningglory [11]","Morningglory plant response rating [11, 19]","Morningglory plant response rating [11, 20]",other results
CCCc1cc(C(=O)NCC(F)(F)F)nn1Cc1ccnc(C(F)(F)F)c1 [Compound 105],100,100,60,100,100,100,80,95,90,95,85,95,95,65,100,100,100,100,100,100,"Velvetleaf plant response rating [3, 17]: 100; Wheat plant response rating [4, 17]: 100; Corn plant response rating [5, 17]: 100; Ryegrass, Italian plant response rating [8, 21]: 95; Corn plant response rating [9, 21]: 80; Foxtail, Giant plant response rating [10, 21]: 100; Morningglory plant response rating [11, 21]: 100; Plant response rating (scale of 0 to 100), Pigweed [12]: 100; Pigweed plant response rating [12, 19]: 100; Pigweed plant response rating [12, 20]: 100; Pigweed plant response rating [12, 21]: 100; Plant response rating (scale of 0 to 100), Ragweed [13]: 98; Ragweed plant response rating [13, 19]: 98; Ragweed plant response rating [13, 20]: 98; Ragweed plant response rating [13, 21]: 98; Plant response rating (scale of 0 to 100), Velvetleaf [14]: 100; Velvetleaf plant response rating [14, 19]: 98; Velvetleaf plant response rating [14, 20]: 100; Velvetleaf plant response rating [14, 21]: 100"
CCCc1cc(C(=O)NCC)nn1Cc1cc(C(F)(F)F)nn1C [Compound 129],90,100,50,100,90,50,50,95,40,95,5,90,65,0,100,100,100,100,45,98,"Velvetleaf plant response rating [3, 22]: 100; Wheat plant response rating [4, 22]: 70; Corn plant response rating [5, 22]: 80; Plant response rating, Ryegrass, Italian ([8]; 125 g ai/ha, 13 to 15 days): 95; Corn plant response rating [9, 20]: 15; Plant response rating, Corn ([9]; 125 g ai/ha, 13 to 15 days): 55; Plant response rating, Foxtail, Giant ([10]; 125 g ai/ha, 13 to 15 days): 100; Plant response rating, Morningglory ([11]; 125 g ai/ha, 13 to 15 days): 100; Plant response rating (scale of 0 to 100), Pigweed [12]: 100; Pigweed plant response rating [12, 19]: 100; Pigweed plant response rating [12, 20]: 100; Plant response rating, Pigweed ([12]; 125 g ai/ha, 13 to 15 days): 100; Plant response rating (scale of 0 to 100), Ragweed [13]: 100; Ragweed plant response rating [13, 19]: 85; Ragweed plant response rating [13, 20]: 90; Plant response rating, Ragweed ([13]; 125 g ai/ha, 13 to 15 days): 98; Plant response rating (scale of 0 to 100), Velvetleaf [14]: 100; Velvetleaf plant response rating [14, 19]: 55; Velvetleaf plant response rating [14, 20]: 100; Plant response rating, Velvetleaf ([14]; 125 g ai/ha, 13 to 15 days): 100"
CCNC(=O)c1cc(CC)n(Cc2ccnc(OC(F)F)c2)n1 [Compound 130],90,100,10,90,80,20,70,90,40,98,5,25,85,5,100,70,95,100,65,98,"Velvetleaf plant response rating [3, 22]: 100; Wheat plant response rating [4, 22]: 90; Corn plant response rating [5, 22]: 90; Plant response rating, Ryegrass, Italian ([8]; 125 g ai/ha, 13 to 15 days): 65; Corn plant response rating [9, 20]: 30; Plant response rating, Corn ([9]; 125 g ai/ha, 13 to 15 days): 45; Plant response rating, Foxtail, Giant ([10]; 125 g ai/ha, 13 to 15 days): 100; Plant response rating, Morningglory ([11]; 125 g ai/ha, 13 to 15 days): 100; Plant response rating (scale of 0 to 100), Pigweed [12]: 100; Pigweed plant response rating [12, 19]: 100; Pigweed plant response rating [12, 20]: 100; Plant response rating, Pigweed ([12]; 125 g ai/ha, 13 to 15 days): 100; Plant response rating (scale of 0 to 100), Ragweed [13]: 100; Ragweed plant response rating [13, 19]: 70; Ragweed plant response rating [13, 20]: 100; Plant response rating, Ragweed ([13]; 125 g ai/ha, 13 to 15 days): 100; Plant response rating (scale of 0 to 100), Velvetleaf [14]: 100; Velvetleaf plant response rating [14, 19]: 55; Velvetleaf plant response rating [14, 20]: 100; Plant response rating, Velvetleaf ([14]; 125 g ai/ha, 13 to 15 days): 90"
